From patent US20150290148A1 (priority 2006, published 2015)
“Also recorded” adds a separate entry of the source.

Experiments:
[1] = rats; cited from earlier work
BcL2 = experiment: Quantitative real time PCR of hippocampal gene expression after IP injection; assay type: in vivo, Sprague-Dawley rats; conditions: 6 hours after single IP 1.0 mg/kg, vs saline
male Wistar rats [2] = experiment: MCA embolic stroke in rats, infarct size by TTC staining; assay type: in vivo, rat
male Wistar rats [3] = experiment: Traumatic brain injury (fluid percussion) in rats, tolerability; assay type: in vivo, rat; conditions: 0.5 mg/kg/hr 24 hr IV infusion plus bolus after TBI
Description: Three groups of male Wistar rats/group were used in this study. The animals were given 0 (vehicle control; saline), 0 (sham controls) or 0.5 mg/kg/hr MA via a 24 hr continuous IV infusion starting 3 hr after […] on Day 0. The test article was administered via an Alzet mini-osmotic pump at a rate of 0.0073 mL/hour. The dose concentration of MA loaded in the Alzet pump varied between animals (45.8-65.0 mg/mL), and was based on individual animal body weight on Day 0 and the dose concentration that would yield 0.5 mg/kg/hr MA at an infusion rate of 0.0073 mL/hr. Dosing of the animals was staggered over a 4-month period.
Prior to test article administration, all rats were subjected to a surgical procedure to produce a fluid percussion injury. Adult Sprague-Dawley rats (male, 350-500 g) are anesthetized with isoflurane anesthesia (1% isofluorane in 1 L/min O2) via face mask to effect for a small craniectomy (4.80 mm) and placement of a rigid Luer-loc needle hub (3 mm inside diameter). After luer lock hub placement, the hub is connected to the Cell Injury Controller through high pressure rubber tubing that delivers an fluid pulse to the dura. […] The righting reflex time after injury was recorded. […] Animals were monitored 3-4 times a day for the first 48 hr following surgery and daily thereafter for 14 days.

male Wistar rats [4] = experiment: MCA embolic stroke in rats, modified neurological severity score / neurobehavioral outcomes
Description: Male Wistar rats at ages of 8-12 weeks, weighing 300-450 g were used in all experiments. A donor rat was anesthetized with 3.5% Isoflurane, and anesthesia was maintained with 1.0-1.5% Isoflurane in 70% N2O and 30% O2 using a face mask. […] Rats were then anesthetized with 3.5% Isoflurane, and anesthesia was maintained with 1.0-1.5% Isoflurane in 70% N2O and 30% O2 using a face mask throughout the surgical procedure. The animal's muzzle was placed in the face mask 2 cm from the surgical site. Rectal temperature was maintained at 37±″0.5° C. throughout the surgical procedure using an electric heating system. Under a surgical operating microscope) the right common carotid arteries (CCA), the right external carotid artery (ECA) and the internal carotid artery (ICA) were isolated via a 3 cm ventral neck midline incision. A 6-0 silk suture was loosely tied at the origin of the ECA and ligated at the distal end of the ECA. The right CCA and ICA was temporarily clamped using a curved microvascular clip (Codman & Shurtleff, Inc., Randolf, MAP, USA). A modified PE-50 catheter filled with a single clot (˜1 μl), was attached to a 100-μl Hamilton syringe, and introduced into the ECA lumen through a small puncture. The suture around the origin of the ECA was tightened around the intraluminal catheter to prevent bleeding, and the microvascular clip was removed. The catheter was gently advanced from the ECA into the lumen of the ICA. The clot along with 5 μl of saline in the catheter was injected into the ICA over 10 seconds. The catheter was withdrawn from the right ECA immediately after injection. The right ECA was ligated. The duration of the entire surgical procedure was approximately 25 min.
Implantation of osmotic pumps for the purpose of continuous IV infusion occurred at both 6 and 12 hours after delivery of the 4cm clot. Experimental control for the experiment was achieved by substituting methamphetamine for physiological saline. Briefly, at 6 or 12 hours post stroke animals were re-anesthetized using 1-3% isoflurane. After a state of anesthesia was achieved the right side groin area was shaved. After shaving, surgical tape was utilized to remove excess hair. The area was scrubbed with betadine and allowed to dry.
A small incision was made and the groin area was blunt dissected to expose the femoral vein. The femoral vein was separated with surgical tweezers and the distal end was permanently ligated using 6-0 silk thread. The proximal end was ligated and a 0.2 mm incision (approximate) was made in the femoral vein. A 2.5 cm length of polyvinyl tubing (OD 0.07mm) connected to a pre-loaded osmotic pump (Alzet Corp. model 2001D; 6.6 microliters per hour for 24 hrs) was inserted into the vein and gently pushed up towards midline of the body. The tubing was inserted until 0.5 cm was exposed from the vein. The tubing was tied around the vein in two locations using 6-0 silk spaced approximately 2 mm apart. A small pocket was blunt dissected along the groin/abdominal area. The osmotic pump was inserted into the area on the outer wall of the abdomen underneath the skin and sutured into the abdominal fascia using 4-0 synthetic suture. The incision was closed using 4-0 synthetic suture. At 48-72 hours after initial insertion the animal was anesthetized, the groin area was scrubbed with betadine, the incision was reopened, blunt dissected, and the pump exposed. The sutures holding the pump and tubing in place were cut, the pump removed, and the femoral vein was permanently ligated using 6-0 silk suture. The pump was discarded and the incision was closed using 4-0 synthetic suture.

gerbils [5] = experiment: Preliminary dose study and observations in gerbils following surgery; assay type: in vivo, gerbil
[6] = system: interleukin 10 (IL10) gene; experiment: Quantitative real time PCR of hippocampal gene expression after IP injection; assay type: in vivo, Sprague-Dawley rats
gerbils [7] = experiment: Gerbil 5-min 2-VO transient cerebral ischemia, open field activity; assay type: in vivo; conditions: for distance traveled in open field: tested 48 hrs after surgery, 5 min
Description: (§1) Gerbils were anesthetized with isoflurane and core-body temperature maintained at 37-38 C during surgery using a homeothermic blanket (Harvard Apparatus, South Natick, USA). A midline incision was made in the neck and the common carotid arteries were isolated and occluded for 5 min using 85-gm pressure aneurysm clips (ISCH; n=14). A second group of gerbils (SHAM; n=14) underwent the identical procedure except the carotid arteries were not clamped. The incision was sutured and animals received MAP (5 mg/kg; i.p) or equal volume of vehicle (saline; 0 mg) within 2 minutes of reperfusion. Animals were placed in a warmed cage, and observed for 30 minutes. Tylenol (8 mg/ml) was added to drinking water to provide postoperative analgesia.
(§2) Each gerbil was tested 48 hrs following surgery in an open-field apparatus consisting of a metal screen floor 77 cm×77 cm with walls 15 cm in height. Animals were placed in the center region and permitted to explore the novel environment for 5 minutes. Behavioral data (distance traveled, speed) were collected using an automated tracking system (ANY-maze, Stoelting, Ill.) and evaluated separately using ANOVA and the appropriate post hoc test (P<0.05 considered significant). Twenty-one days postsurgery, gerbils were euthanized with CO2 and perfused with phosphate buffered saline followed by 4% paraformaldehyde. Tissue from sham gerbils treated with MAP ([…]) was not evaluated since acute administration of MAP was not expected to histologically alter the hippocampus of this group. Brains were removed and post-fixed for at least 48 hrs prior to collection of 40 μm vibratome sections through the hippocampal region. Sections were mounted on slides and stained with cresyl violet. Damage to the hippocampal CA1 region was evaluated without knowledge of treatment condition by two independent observers using a 4 point rating scale described elsewhere (Babcock et al. 1993). A score of 0 (4-5 compact layers of normal neuronal bodies), 1 (4-5 compact layers with presence of some altered neurons), 2 (spares neuronal bodies with “ghost spaces” and/or glial cells between them), 3 (complete absence or presence of only rare normal neuronal bodies with intense gliosis of the CA1 subfield) was assigned for each animal. Ratings were averaged and evaluated using nonparametric statistics (Kruskal-Wallis and Mann-Whitney U test; P<0.05 considered significant).

interleukin 6 (IL6) gene = experiment: Quantitative real time PCR of hippocampal gene expression after IP injection; assay type: in vivo, Sprague-Dawley rats; conditions: 6 hours after single IP 1.0 mg/kg
neurotrophic factor 3 = experiment: as above; assay type: in vivo, Sprague-Dawley rats; conditions: 6 hours after single IP 1.0 mg/kg, vs saline
neuropeptide Y = experiment: as above; assay type: in vivo, Sprague-Dawley rats; conditions: 6 hours after single IP 1.0 mg/kg, vs saline
hippocampal CA1 region = experiment: Gerbil 5-min 2-VO transient cerebral ischemia, histological rating of hippocampal CA1; assay type: in vivo; conditions: for damage to hippocampal CA1 following ischemic insult: MAP 5 mg/kg 1-2 minutes after ischemic insult
Description: as §1, §2

[8] = system: brain derived neurotrophic factor; experiment: Quantitative real time PCR of hippocampal gene expression after IP injection; assay type: in vivo, Sprague-Dawley rats; conditions: 6 hours after single IP 1.0 mg/kg, vs saline
male Wistar rats [9] = experiment: MCA embolic stroke in rats, foot fault; assay type: in vivo, rat; conditions: 1.0 mg/kg/hr, started 0, 6 or 12 hours after stroke
male Wistar rats [10] = experiment: MCA embolic stroke in rats, adhesive tape removal test; assay type: in vivo, rat
[11] = 0.1 mg/kg/hr IV infusion 24 hrs, immediately after stroke
[12] = 1.0 mg/kg/hr IV infusion 24 hrs, started 6 hours after stroke
[13] = 1.0 mg/kg/hr IV infusion 24 hrs, started 6 hours after stroke, listed as MAP
[14] = 1.0 mg/kg/hr IV infusion 24 hrs, started 12 hours after stroke, listed as MAP
[15] = 0.5 and 1.0 mg/kg/hr IV infusion 24 hrs, immediately after stroke
[16] = 0.5 and 1.0 mg/kg/hr IV infusion 24 hrs, immediately after stroke, listed as MAP

CN[C@@H](C)Cc1ccccc1 [methamphetamine]
half-life [1]: approximately 1 hr
change in BcL2 gene expression in hippocampus (BcL2): +167%
infarct size / infarct volume at 7 days (male Wistar rats [2]; [11]): No significant reductions in infarct volumes
infarct size / infarct volume at 7 days (male Wistar rats [2]; 0.1 mg/kg/hr IV infusion 24 hrs, immediately after stroke, listed as MAP): failed to decrease the infarct size
infarct size / infarct volume at 7 days (male Wistar rats [2]; [12]): significant reduction in infarct volumes; also recorded: significantly reduces infarct size
infarct size / infarct volume at 7 days (male Wistar rats [2]; [13]): significantly reduced infarct size
infarct size / infarct volume at 7 days (male Wistar rats [2]; [14]): still significantly reduces infarct size
infarct size / infarct volume at 7 days (male Wistar rats [2]; [15]): reduces brain damage (infarct size); also recorded: significant reduction in infarct volumes
infarct size / infarct volume at 7 days (male Wistar rats [2]; [16]): decreased infarct size
infarct size / infarct volume at 7 days (male Wistar rats [2]; 0.5 and 1.0 mg/kg/hr IV infusion 24 hrs, immediately after stroke, listed as Methamphetamine): decreases infarct size
animals with substantial reduction in infarct volumes (male Wistar rats [2]; infusion beginning 12 hours after stroke): Four out of the nine
tolerability (male Wistar rats [3]): well tolerated with no toxicity
neurobehavioral outcomes (neurological severity score) (male Wistar rats [4]; [11]): improved neurobehavioral outcomes
neurobehavioral outcomes (neurological severity score) (male Wistar rats [4]; [12]): significant improvement in neurological severity scores; also recorded: significantly decreased neurobehavioral deficits
neurobehavioral outcomes (neurological severity score) (male Wistar rats [4]; [13]): improved neurobehavioral outcomes on all testing parameters
neurobehavioral outcomes (neurological severity score) (male Wistar rats [4]; 1.0 mg/kg/hr IV infusion 24 hrs, started 12 hours after stroke): significant improvement in neurological severity scores; also recorded: significantly decreased neurobehavioral deficits
neurobehavioral outcomes (neurological severity score) (male Wistar rats [4]; [14]): robust effect on neurobehavioral outcomes
neurobehavioral outcomes (neurological severity score) (male Wistar rats [4]; [15]): significant improvement in neurological severity scores
neurobehavioral outcomes (neurological severity score) (male Wistar rats [4]; [16]): improved neurobehavioral outcomes
lethality in gerbils following surgery (gerbils [5]; doses greater than 5 mg/kg (10 and 20 mg/kg)): lethal
clinical observation after treatment (gerbils [5]; gerbils, MAP 5 mg/kg i.p. after surgery): became piloerect with their tails pointing up
change in IL10 gene expression in hippocampus ([6]; 1 hour after single IP 1.0 mg/kg, vs saline): 445%
IL10 expression in hippocampus vs saline ([6]; 6 hours after single IP 1.0 mg/kg): not significantly different from saline treated animals
open field activity, SHAM+5 mg vs SHAM+0 mg (gerbils [7]; MAP 5 mg/kg i.p., 48 hrs after surgery): failed to significantly alter activity levels
open field activity, ischemic vs sham gerbils both treated with MAP (gerbils [7]; MAP 5 mg/kg i.p., 48 hrs after surgery, listed as MAP): not significantly different; also recorded: comparable to control levels
distance traveled in open field (gerbils [7]; ischemic gerbils, MAP 5 mg/kg i.p. within 2 min of reperfusion): 66.3 m
distance traveled in open field (gerbils [7]; sham gerbils, MAP 5 mg/kg i.p.): 72.7 m
IL6 expression in hippocampus vs saline (interleukin 6 (IL6) gene): not significantly different from saline treated animals
change in neurotrophic factor 3 gene expression in hippocampus (neurotrophic factor 3): +192%
change in neuropeptide Y gene expression in hippocampus (neuropeptide Y): +192%
histological rating score of hippocampal CA1 damage (0-3 scale) (hippocampal CA1 region; ISCH+5 mg MAP group, 21 days after ischemic insult): 0.07±0.07
damage to hippocampal CA1 following ischemic insult (hippocampal CA1 region; 21 days): significantly reduced damage to the hippocampal CA1; also recorded: failed to exhibit any damage to the hippocampus
damage to hippocampal CA1 following ischemic insult (hippocampal CA1 region; 21 days, listed as MAP): prevented any significant loss of hippocampal CA1 pyramidal cells
animals with any detectable neuronal pathology in the hippocampus (hippocampal CA1 region; ischemic gerbils treated with MAP 5 mg/kg, 21 days): 1 of 7
change in brain derived neurotrophic factor gene expression in hippocampus [8]: +141%
foot fault values (male Wistar rats [9]): significant improvements in foot fault values
time to remove adhesive tape, day 7 vs day 1 (male Wistar rats [10]; [11]): no significant change in the time to remove tape
time to remove adhesive tape, day 7 vs day 1 (male Wistar rats [10]; 1 mg/kg/hr started 6 hours after stroke): improvement in function was still observed
time to remove adhesive tape, day 7 vs day 1 (male Wistar rats [10]; 1 mg/kg/hr withheld until 12 hours after stroke (data not shown)): failed to produce an effect
time to remove adhesive tape, day 7 vs day 1 (male Wistar rats [10]; 0.5 or 1.0 mg/kg/hr IV infusion 24 hrs, immediately after stroke): required significantly less time to remove the tape
